Experimental data published in US20240294545A1 (CSPC Zhongqi Pharmaceutical Technology (Shijiazhuang) Co., …, priority 2020, published 2024).
Marks after values point to notes of the source that are not given here.

Tested on: subcutaneous xenograft tumor of human colon cancer cell line HT-29
Experiment: HT-29 subcutaneous xenograft, combined with irinotecan liposome injection
Type: in vivo, NU/NU mice
Conditions: compound 25 mg/kg intragastric + irinotecan liposome 10 mg/kg ip
Experimental: 7 Efficacy Test of the Compounds of the Present Disclosure Combined with Irinotecan Liposome Injection on Inhibiting the Growth of Subcutaneous Xenograft Tumor of Human Colon Cancer Cell Line HT-29
7.1 Experimental Animals: NU/NU Mice, SPF, Female, 20 to 30 g.
Irinotecan liposome injection (HE072), 43 mg: 10 mL, milky white liquid, batch No. B37191202, provided by Preparation Research Institute 2 from CSPC Zhongqi Pharmaceutical Technology (Shijiazhuang) Co., Ltd., diluted to an appropriate concentration with 5% glucose injection while testing.
HT-29 cell, provided by Nanjing Kebai Biotechnology Co., Ltd.; 5A culture medium:fetal bovine serum=90%:10%, 37° C., 5% CO2.
NU/NU nude mice were subcutaneously inoculated with HT-29 human colon cancer cells. When the mean tumor volume reached about 170 mm^3 (9 days after inoculation), the animals were evenly divided into groups according to the tumor volume (d0), with 6 mice in each group. 10 mg/kg of HE072 was administered intraperitoneally once a week for 1 time. Vehicle control, 25 mg/kg of A-6, 25 mg/kg of A-46, and 25 mg/kg of AZD1390 were administered intragastrically once a day, from Monday to Thursday every week except Friday to Sunday, for 1 week (4 times). The tumor volume was measured twice a week, the body weight of mouse was weighed every day, and the data were recorded. The tumor volume (TV) was calculated according to the formula: TV=½×a×b2, wherein a and b represent the long and short diameters of tumor, respectively. Tumor growth inhibitory rate TGI (%)=[1−(Ti−T0)/(Vi−V0)]×100, wherein Ti represents the mean tumor volume of a given treatment group on a certain day; TO represents the mean tumor volume of this treatment group at the beginning of administration; Vi represents the mean tumor volume of the vehicle control group on a certain day (the same day as that in Ti); V0 represents the mean tumor volume of the vehicle control group at the beginning of administration. At the end of the test (d17), the animals were sacrificed, the tumors were stripped and weighed, and the tumor weight inhibitory rates were calculated.

## CC(C)n1c(=O)n(C)c2cnc3cc(F)c(-c4ccc(OCCCN5CCCCC5)nc4)cc3c21 [AZD1390, reference compound]
Day 16
  D 16 TGI: 89.6%
  D 16 TV (MEAN ± SD): 244.2 ± 192.8***^### mm^3
End of test
  Tumor weight: 0.18 ± 0.18 g
  Tumor weight inhibitory rate: 74.7%
